Test results from patent US11331335B2, “Sepsis treatment and related compositions methods and systems” (CALIFORNIA INSTITUTE OF TECHNOLOGY, priority 2015, dated 2022).

Key:
[1] = test system: endotoxin (lipopolysaccharide; LPS) induced sepsis, Balb/c animals; test: Endotoxic shock model (high dose LPS), PSA given orally or intravenously before induction; format: in vivo, mouse
Experimental: In this model, animals are treated intravenously with high doses of endotoxin (lipopolysaccharide; LPS). Administration of LPS leads to the production of massive amounts of inflammatory cytokines such as tumor necrosis factor α (TNF-α) and IL-6 and animals rapidly succumb to death. This model closely resembles the cytokine storm seen in patients suffering from septic shock.
Five days post-induction CD4+ T cells were isolated from the spleens of the indicated animals. Equal amounts of RNA were used to perform q-RT-PCR on IL6 or TNFa cytokines at 1 and 4 hours post-LPS. (FIG. 1 panel A diagram on the left, and FIG. 1 panel B diagram on the left)
In another set of experiments, Balb/c animals were treated intravenously with PSA 24 hours prior to be induced with TNBS colitis. Five days post-induction CD4+ T cells were isolated from the spleens of the indicated animals. Equal amounts of RNA were used to perform q-RT-PCR on IL6 or TNFa cytokines at 1 and 4 hours post-LPS. (FIG. 1 panel A diagram on the right, and FIG. 1 panel B diagram on the right)
Detection of percent survival of in animals treated intravenously with high doses of endotoxin (lipopolysaccharide; LPS) was performed. Accordingly, Balb/C animals were orally or intravenously treated with PSA or PBS as described in Example 2 and the number of surviving mice counted.

[2] = test system: marginal zone B cells; test: Transfer of MZ B cells from PSA treated donors into RAG-/- recipients, then LPS induced sepsis; format: in vivo, mouse
Experimental: To further validate this conclusion, experiments were performed to determine whether the function of PSA on MZ B cells could be transplanted into mice that have never been treated with PSA. WT animals were treated i.v. with two doses of PSA and splenic MZ B cells were isolated and subsequently transferred into a RAG^−/− recipients. LPS induced sepsis was then induced in the MZ B cell recipients without any treatment with PSA.
In particular a second set of experiments, WT C57Bl/6 animals were treated i.v. with either PBS or PSA (100 ug) every other day for a total of three days (FIG. 4 Panels C and D). MZ B cells were subsequently sort purified as in the first set of experiments and 8×10^5 MZ B cells were transferred into RAG^−/− recipients. Twenty-four hours later animals received high dose LPS (500 ug). Serum was collected at indicated time points to analyze TNF-α (FIG. 4 Panel E) and survival monitored (FIG. 4 Panel F). * p<0.05 **p<0.005 by a student's t test for all ELISA data and *p<0.05 **p<0.005 using a logrank and Gehan-Wilcoxon test for survival data.
Marginal zone B cells secrete copious amounts of polyreactive IgM. […] Based on this, serum was isolated from RAG^−/− animals that received a MZ B transplant from PSA treated mice and quantitated IgM serum levels.

[3] = test system: endotoxin shock in IL-10−/− mice; test: Endotoxin induced sepsis in IL-10-/- mice; format: in vivo, mouse
Experimental: (§1) FIG. 6 Panels C and A show detection of TNF-a in TLR2^−/− or IL-10^−/− mice treated intravenously treated i.v. with PBS or PSA directly following induction of endotoxin shock by intraperitoneal administration of high doses of LPS (500 ug).
(§2) Therefore, to determine whether PSA protection from endotoxin induced sepsis also required these pathways the following experiments were performed.

[4] = test system: LPS sepsis in RAG−/− recipients of sIgM−/− B cells; test: Endotoxin induced sepsis in RAG-/- recipients of B cells from sIgM-/- mice; format: in vivo, mouse
Source text: To test whether IgM is the mechanism by which PSA is able to protect from endotoxin induced sepsis total B cells were isolated from the spleen of animals that are unable to make secreted IgM (sIgM^−/−) and transferred these cells into RAG^−/− recipients according to procedure of Example 7.

[5] = test system: endotoxin shock in TLR2−/− mice; test: Endotoxin induced sepsis in TLR2-/- mice; format: in vivo, mouse
Experimental: as §1, §2

[6] = test system: LPS sepsis in RAG−/− recipients of B1 or MZ B cells; test: Endotoxin induced sepsis in RAG-/- recipients of sort purified B1 or MZ B cells, treated with PSA; format: in vivo, mouse
Experimental: Multiple subsets of B cells exist within the spleen including B1, follicular, and MZ B cell populations. […] Both B1 and MZ B cells can secrete IgM in a T cell independent manner, therefore experiments were performed to determine whether either of these subsets conferred protection from sepsis by PSA. B1 cells and MZ B cells were sort purified and transferred into RAG^−/− animals. Animals were subsequently treated with PSA and induced for disease.
In particular in a first set of experiments, marginal zone B cells (CD19+B220+IgM^hiCD21^hiCD23) were sort purified and transferred into RAG^−/− recipients. Twenty-four hours later these animals were given high dose LPS and serum collected at 1 and 4 hours to assay for TNF-α (FIG. 4 Panel A) and survival was monitored (FIG. 4 Panel B).

[7] = test system: TNBS colitis; test: TNBS colitis, systemic (spleen) inflammation after PSA; format: in vivo, mouse
Experimental: Three models of intestinal inflammation were used: 1) CD4^+CD45Rb^high T cells were purified from the spleens of wild-type or IL-10^−/− donor mice by flow cytometry and transferred into Rag (C57Bl/6) recipients as described. 2) TNBS colitis was induced by pre-sensitization of wild-type (C57Bl/6) mice on the skin with a TNBS/acetone mix. Seven days after sensitization, 2.5% TNBS in ethanol was administered rectally; mice were sacrificed 3-6 days later.
Cytokines from the spleen, colons, or mesenteric lymphonodes (MLNs) were assayed by ELISA, Q-PCR, or flow cytometry. Colitis was assessed with tissue sections (fixed, paraffin embedded, sectioned onto a slide, and stained with hematoxylin and eosin) and was scored by a blinded pathologist (Dr. R. T. Bronson, Harvard Medical School) according to a standard scoring system: 0, no thickening of colonic tissues and no inflammation (infiltration of lymphocytes); 1, mild thickening of tissues but no inflammation; 2, mild thickening of tissues and mild inflammation; 3, severe thickening and severe inflammation. BMDCs were purified from femurs of mice after extraction and washing in PBS. Cells were cultured for 8 days in C-RPMI-10 in the presence of GM-CSF (20 ng/mL; Biosource, Camarillo, Calif.). CD4^+ T cells were purified by negative selection over a magnetic column (Miltenyi or R& D Systems).
The backs of wild-type (C57BL/6) male mice were shaved, and pre-sensitization solution (150 μL; acetone with olive oil in a 4:1 ratio mixed with 5% TNBS in a 4:1 ratio) was slowly applied. […] Mice were analyzed 4-6 days after TNBS administration.
Animals were orally gavaged with vehicle or PSA twenty-four hours prior to being induced with colitis. Five days post-induction CD4+ T cells were isolated from the spleens of indicated animals and analyzed for the inflammatory cytokines TNF-α, IL-17a and IL-6 to determine how systemic inflammation is influenced during intestinal disease.

[8] = test system: LPS sepsis in RAG−/− mice; test: Endotoxin induced sepsis in RAG-/- mice with or without transfer of T cells, CD4 depleted splenocytes or CD19+ B cells; format: in vivo, mouse
Experimental: In particular, the requirement for T and B cells during PSA mediated protection from sepsis was tested.
In a first set of experiments, RAG^−/− animals were treated i.v. with either PBS or PSA 24 hours prior to receiving high dose LPS i.p. Serum was collected from animals at 1 and 4 hours, TNF-α and IL-6 were measured by ELISA (FIG. 3 Panel A) and survival monitored (FIG. 3 Panel B). Two experiments were combined. *p<0.05 **p<0.005 using a logrank and Gehan-Wilcoxon test.
In a second set of experiments, RAG^−/− recipients received either CD4+CD3+ (square) or total T cells (CD3+) (triangle) or CD4 depleted splenocytes (includes CD8+ T cells and CD19+ B cells) (sphere). Twenty-four hours later animals were given LPS. Serum was collected 1 and 4 hours post-LPS to measure cytokines (FIG. 3 Panel C) and survival was monitored (FIG. 3 Panel D).
In a third set of experiments sort purified CD19+ total B cells were purified from the spleen of donor animals and transferred into RAG^−/− recipients and inflammatory cytokines were monitored at 1 and 4 hours (FIG. 3 Panel E) as well as survival (FIG. 3 Panel F). * p<0.05 **p<0.005 by a student's t test for all ELISA data and *p<0.05 **p<0.005 using a logrank and Gehan-Wilcoxon test for survival data. ELISA data is representative from one experiment repeated twice with an n of 4 in each group. Survival data combines multiple experiments.

[9] = test system: TNF-α or IL-6 production; test: Cytokine induction by PSA administered i.v. alone; details: data not shown
[10] = test system: cecal-ligation puncture (CLP) model; test: Cecal-ligation puncture (CLP) model of sepsis; format: in vivo, mouse; details: PSA vs PBS mock treated (about fifty percent succumbed)
Source text: To validate a role for PSA during protection from sepsis, a second, well-established mouse model of sepsis called the cecal-ligation puncture (CLP) model was used. CLP induces colonic spillage of bacteria into the peritoneal cavity, which then enter the bloodstream. Although there are limitations, this model is thought to best mimic a primary cause of human sepsis (polymicrobial infection from the gut).

[11] = test system: endotoxin induced sepsis, Balb/c animals; test: Endotoxin induced sepsis, PSA administered i.v. after LPS; format: in vivo, mouse
Experimental: To mimic a clinically significant treatment situation, PSA was administered after inducing endotoxin induced sepsis. Balb/c animals were treated with high doses of LPS (500 ug) i.p. and subsequently treated i.v. with PBS, PSA or PSA was administered 30 minutes post-LPS (see FIG. 2).
Since this is an acute model, where overt inflammation occurs within one hour after induction two timepoints for PSA treatment were tested. In particular, serum was collected 1 and 4 hours post-LPS injection and cytokines TNF-α (FIG. 2 Panel A) and IL-6 (FIG. 2 Panel B) were detected by ELISA.
Each experiment consisted of at least 4 animals in each groups and was repeated twice. * p<0.05 **p<0.005 as measured by a students t test One group received i.v. administration of PSA directly after LPS injection (PSA same) while the second group received PSA thirty minutes post-LPS injection (PSA-post) (FIG. 2).

[12] = PSA i.v. following LPS 500 ug i.p.
[13] = RAG−/− mice reconstituted with CD19+ total B cells, i.v. PSA vs PBS
[14] = PSA i.v. thirty minutes post-LPS (PSA post)

polysaccharide A [PSA]
serum inflammatory cytokines (TNF-α, IL-6) ([1]; PSA provided directly within the blood (intravenous), 1 and 4 hours post-LPS, vs mock treated): significantly blocked induction of serum inflammatory cytokines | serum TNF-α ([1]; animals fed PSA (oral gavage), vs mock treated): slightly elevated | survival ([1]; intravenous administration of PSA): potently protected animals from death | protection from endotoxin induced sepsis (serum TNF-α, mortality) ([2]; RAG−/− recipients of 8×10^5 MZ B cells from donors treated i.v. with PSA (100 ug), recipients not treated with PSA, LPS 500 ug): completely protected from endotoxin induced sepsis | IgM serum levels during LPS induced sepsis ([2]; RAG−/− recipients of MZ B cells from PSA treated animals vs from mock treated mice): high levels of circulating IgM | TNFα and IL-6 levels during septic shock ([3]; PSA i.v.): suppressed | survival [3, 12]: completely protected from death | protection from sepsis (serum inflammatory cytokines, death) ([4]; PSA i.v. treated animals vs PBS treated): protected | protection from sepsis (serum inflammatory cytokines, death) ([4]; RAG−/− animals that received MZ B cells from sIgM−/− mice, PSA i.v.): no longer protected by administration of PSA | TNFα and IL-6 levels during septic shock ([5]; PSA i.v.): suppressed | survival [5, 12]: completely protected from death | PSA mediated protection ([6]; RAG−/− recipients of B1b cells, data not shown): did not restore PSA mediated protection | survival ([6]; RAG−/− recipients of purified MZ B cells, PSA treated): protect animals from sepsis induced death | serum levels of TNF-α ([6]; RAG−/− recipients of purified MZ B cells, PSA treated, 1 and 4 hours after high dose LPS): suppression of serum levels of TNF-α | inflammatory cytokine expression (TNF-α, IL-17a, IL-6) in splenic CD4+ T cells ([7]; PSA orally gavaged 24 h prior to colitis induction, five days post-induction, vs colitogenic animals): reduced cytokine expression | whether PSA influences inflammation within the systemic compartment (colon disease score, survival; FIG. 5 C, D) ([7]; intravenous PSA 24 h prior to TNBS colitis): supported this conclusion | splenomegaly in colitic animals ([7]; orally gavaged PSA): able to prevent | protection from sepsis (serum TNF-α, survival) ([8]; RAG−/− animals (no T and B cells), PSA i.v. 24 hours prior to high dose LPS i.p.): no longer protected animals from sepsis | serum levels of TNFα [8, 13]: significantly reduced | survival [8, 13]: survived | PSA mediated protection from death ([8]; RAG−/− recipients of CD3+ total T cells): unable to restore PSA mediated protection from death | prevention of death and suppression of systemic inflammation ([8]; RAG−/− recipients of CD4+ T cell depleted splenocytes): restored the ability of PSA to prevent death and suppress systemic inflammation | PSA mediated protection from death ([8]; RAG−/− recipients of CD4+ sort purified T cells): unable to restore PSA mediated protection from death | overt inflammation on i.v. administration ([9]; PSA i.v. into animals): does not elicit overt inflammation | TNF-α or IL-6 production induced by PSA on its own ([9]; PSA i.v., no LPS): does not on its own induce | survival [10]: significantly increased survival rate | serum TNF-α and IL-6 levels ([11]; PSA i.v. directly following LPS 500 ug i.p. (PSA same), 1 and 4 hours post-LPS): reduced levels | survival ([11]; PSA i.v. directly following LPS (PSA same)): high survival rate | serum TNF-α [11, 14]: lower serum levels | survival [11, 14]: higher survival rate
